According to patent US20250092031A1, “RIPK3 INHIBITORS AND METHODS OF USE” (Momentum Therapeutics, Inc., priority 2023, published 2025):

How the values were obtained:
RIPK3 = biological target: T1, RIPK3 (Homo sapiens, UniProt Q9Y572); test: RIPK3 kinase assay (radiometric HotSpot, Reaction Biology Corporation); type: biochemical
T1 construct: purchased Reaction Biology Corporation (RBC), Malvern, USA (contract assay service)
Protocol: The assays were performed in Reaction Biology Corporation (RBC), Malvern, USA. Compounds were diluted with DMSO to a final stock concentration of 10 mM and then were tested in a 10-dose IC50 mode with a 3-fold serial dilution starting at […]. All the reactions were carried out at 10 μM ATP and MBP 20 μM as substrates. RIPK3 activity was determined using radiometric HotSpot™ kinase assay protocol and IC50 values were calculated use GraphPad Prism software.

Human HT-29 cells = test: Necroptosis inhibition assay in HT-29 cells (hTNFα + zVAD + SMAC mimetic, Sytox Green/Hoechst); type: cell-based; conditions: 10 ng/ml hTNFα, 20 μM zVAD and 100 nM SMAC mimetic, 6 hours, Sytox/Hoechst positive cells, read-out: HT29 necroptosis inhibition IC50
In short: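 Cells stimulated 48 h after seeding with 10 ng/ml hTNFα, 20 μM zVAD and 100 nM SMAC mimetic plus compound, 6 h at 37 °C. Sytox Green and Hoechst positive cells counted by imaging; inhibition scaled between DMSO-treated (100%) and stimulated-only (0%) wells, IC50 by curve fitting.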

Murine L929 cells = test: Necroptosis inhibition assay in L929 cells (mTNFα + zVAD, Sytox Green); type: cell-based; conditions: Mus musculus, 10 ng/ml mTNFα and 20 μM zVAD, 6 hours, Sytox Green fluorescence
In short: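 Murine L929 cells, treated 48 h after seeding with 10 ng/ml mTNFα plus 20 μM zVAD and compound ([…]), 6 h at 37° C. Necroptosis read by Sytox Green fluorescence (500ex/530em), scaled between 0.1% DMSO and TNFα+zVAD wells; IC50 from inhibition curves.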

T1 sequence (Q9Y572 whole entry): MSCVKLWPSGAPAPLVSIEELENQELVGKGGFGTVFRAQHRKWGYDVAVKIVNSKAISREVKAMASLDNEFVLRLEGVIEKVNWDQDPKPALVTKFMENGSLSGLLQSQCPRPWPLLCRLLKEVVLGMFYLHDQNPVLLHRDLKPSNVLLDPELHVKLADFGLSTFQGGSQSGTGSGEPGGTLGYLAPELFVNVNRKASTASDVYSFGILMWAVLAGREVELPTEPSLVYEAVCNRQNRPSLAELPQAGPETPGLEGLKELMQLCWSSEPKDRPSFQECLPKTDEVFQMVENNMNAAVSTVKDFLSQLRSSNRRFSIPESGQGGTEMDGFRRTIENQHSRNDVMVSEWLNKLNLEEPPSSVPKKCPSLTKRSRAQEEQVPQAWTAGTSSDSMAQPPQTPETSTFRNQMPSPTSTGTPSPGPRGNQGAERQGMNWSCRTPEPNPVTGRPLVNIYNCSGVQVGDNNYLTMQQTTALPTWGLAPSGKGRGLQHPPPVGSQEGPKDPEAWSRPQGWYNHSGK

SMILES	IC50 (RIPK3) [nM]	IC50 (Human HT-29 cells) [nM]	IC50 (Murine L929 cells) [nM]
CN1CCC(c2ccc(-c3ccc4nccc(Nc5ccc6scnc6c5)c4c3)cc2)CC1 [Compound 28, N-(6-(4-(1-methylpiperidin-4-yl)phenyl)quinolin-4-yl)benzo[d]thiazol-5-amine]	3.47	> 10000	2590
CN1CCN(Cc2ccc(-c3ccc4c(Nc5ccc6scnc6c5)ccnc4c3)c(F)c2)CC1 [Compound 29, N-(7-(2-fluoro-4-((4-methylpiperazin-1-yl)methyl)phenyl)quinolin-4-yl)benzo[d]thiazol-5-amine]	2.31	341	494
CN1CCN(Cc2ccc(-c3ccc4nccc(Nc5ccc(Cl)c(Cl)c5)c4c3)c(F)c2)CC1 [Compound 31, N-(3,4-dichlorophenyl)-6-(2-fluoro-4-((4-methylpiperazin-1-yl)methyl)phenyl)quinolin-4-amine]	2.75	523	1660
CN1CCN(C(=O)c2ccc(-c3ccc4c(Nc5ccc6scnc6c5)ccnc4c3)cc2)CC1 [Compound 34, (4-(4-(benzo[d]thiazol-5-ylamino)quinolin-7-yl)phenyl)(4-methylpiperazin-1-yl)methanone]	0.65	119	68.5
CN1CCN(C(=O)c2ccc(-c3ccc4nccc(Nc5ccc6scnc6c5)c4c3)cc2)CC1 [Compound 35, (4-(4-(benzo[d]thiazol-5-ylamino)quinolin-6-yl)phenyl)(4-methylpiperazin-1-yl)methanone]	3.97	116	818
CC(C)(C)N1CCN(Cc2ccc(-c3ccc4nccc(Nc5ccc6scnc6c5)c4c3)c(F)c2)CC1 [Compound 36, N-(6-(4-((4-(tert-butyl)piperazin-1-yl)methyl)-2-fluorophenyl)quinolin-4-yl)benzo[d]thiazol-5-amine]	1.28	353	318
CC(C)(C)N1CCN(Cc2ccc(-c3ccc4c(Nc5ccc6scnc6c5)ccnc4c3)c(F)c2)CC1 [Compound 37, N-(7-(4-((4-(tert-butyl)piperazin-1-yl)methyl)-2-fluorophenyl)quinolin-4-yl)benzo[d]thiazol-5-amine]	1.79	670	445
Fc1cc(CN2CCC(F)(F)CC2)ccc1-c1ccc2nccc(Nc3ccc4scnc4c3)c2c1 [Compound 40, N-(6-(4-((4,4-difluoropiperidin-1-yl)methyl)-2-fluorophenyl)quinolin-4-yl)benzo[d]thiazol-5-amine]	18.3	7870	1060
Fc1cc(CN2CCNCC2)ccc1-c1ccc2nccc(Nc3ccc4scnc4c3)c2c1 [Compound 41, N-(6-(2-fluoro-4-(piperazin-1-ylmethyl)phenyl)quinolin-4-yl)benzo[d]thiazol-5-amine]	0.133	86.8	365
Fc1cc(CN2CCCCC2)ccc1-c1ccc2c(Nc3ccc4scnc4c3)ccnc2c1 [Compound 43, N-(7-(2-fluoro-4-(piperidin-1-ylmethyl)phenyl)quinolin-4-yl)benzo[d]thiazol-5-amine]	0.162	93.9	188
O=c1ccccn1Cc1ccc(-c2ccc3nccc(Nc4ccc5scnc5c4)c3c2)c(F)c1 [Compound 47, 1-(4-(4-(benzo[d]thiazol-5-ylamino)quinolin-6-yl)-3-fluorobenzyl)pyridin-2(1H)-one]	0.86	1020	421
c1cc(Nc2ccc3scnc3c2)c2ccc(-c3ccc(OCCN4CCCCC4)cc3)cc2n1 [Compound 50, N-(7-(4-(2-(piperidin-1-yl)ethoxy)phenyl)quinolin-4-yl)benzo[d]thiazol-5-amine]	0.102	708	320
Fc1cc(CN2CC3(CCOCC3)C2)ccc1-c1ccc2nccc(Nc3ccc4scnc4c3)c2c1 [Compound 51, N-(6-(4-(7-oxa-2-azaspiro[3.5]nonan-2-ylmethyl)-2-fluorophenyl)quinolin-4-yl)benzo[d]thiazol-5-amine]	1.88	1200	832
Fc1cc(CN2CC3(CCOCC3)C2)ccc1-c1ccc2c(Nc3ccc4scnc4c3)ccnc2c1 [Compound 52, N-(7-(4-(7-oxa-2-azaspiro[3.5]nonan-2-ylmethyl)-2-fluorophenyl)quinolin-4-yl)benzo[d]thiazol-5-amine]	0.57	505	323
O=C(c1ccc(-c2ccc3nccc(Nc4ccc5scnc5c4)c3c2)c(F)c1)N1CCCCC1 [Compound 53, (4-(4-(benzo[d]thiazol-5-ylamino)quinolin-6-yl)-3-fluorophenyl)(piperidin-1-yl)methanone]	0.72	705	513
Fc1cc(CN2CCCC2)ccc1-c1ccc2c(Nc3ccc4scnc4c3)ccnc2c1 [Compound 54, N-(7-(2-fluoro-4-(pyrrolidin-1-ylmethyl)phenyl)quinolin-4-yl)benzo[d]thiazol-5-amine]	0.308	630	201
O=C(c1ccc(-c2ccc3c(Nc4ccc5scnc5c4)ccnc3c2)c(F)c1)N1CCCCC1 [Compound 61, (4-(4-(benzo[d]thiazol-5-ylamino)quinolin-7-yl)-3-fluorophenyl)(piperidin-1-yl)methanone]	0.029	94.2	93.3
O=C(c1ccc(-c2ccc3nccc(Nc4ccc5scnc5c4)c3c2)c(F)c1)N1CCNCC1 [Compound 249, (4-(4-(benzo[d]thiazol-5-ylamino)quinolin-6-yl)-3-fluorophenyl)(piperazin-1-yl)methanone]	1.75	67.9	1260
O=C1CN(C(=O)c2ccc(-c3ccc4c(Nc5ccc6scnc6c5)ccnc4c3)c(F)c2)CCN1 [Compound 276, 4-(4-(4-(benzo[d]thiazol-5-ylamino)quinolin-7-yl)-3-fluorobenzoyl)piperazin-2-one]	6.89	538	553
O=C(c1ccc(-c2ccc3c(Nc4ccc5scnc5c4)ccnc3c2)c(F)c1)N1CC2(CNC2)C1 [Compound 284, (4-(4-(benzo[d]thiazol-5-ylamino)quinolin-7-yl)-3-fluorophenyl)(2,6-diazaspiro[3.3]heptan-2-yl)methanone]	1.13	386	960
O=C(c1ccc(-c2ccc3nccc(Nc4ccc5scnc5c4)c3c2)c(F)c1)N1CC2(CNC2)C1 [Compound 285, (4-(4-(benzo[d]thiazol-5-ylamino)quinolin-6-yl)-3-fluorophenyl)(2,6-diazaspiro[3.3]heptan-2-yl)methanone]	3.14	129	2710
Fc1cc(CN2CC3(CNC3)C2)ccc1-c1ccc2nccc(Nc3ccc4scnc4c3)c2c1 [Compound 292, N-(6-(4-((2,6-diazaspiro[3.3]heptan-2-yl)methyl)-2-fluorophenyl)quinolin-4-yl)benzo[d]thiazol-5-amine]	3.67	159	1780
